Results as given in US6159940A, “Method for modulating hemopoiesis” (Immunotech Developments Inc., priority 1999, dated 2000).

Assays:
[1] = system: CFU-S-8 and CFU-S-12; assay: Cytostatic (Cytosine-Arabinoside)-induced cytopenia: karyocytes, CFU-S-8, CFU-S-12 in bone marrow; type: in vivo, mice; conditions: donor bone marrow; CA 20 mg/kg i.p. once; N 10 μg/kg once daily, three injections
Description: Used as a cytostatic, Cytosine-Arabinoside (CA) was intraperitoneally injected to donor mice once in the dose of 20 mg/kg. The peptide was given according to the following scheme: 10 μg/kg once daily, three injections starting from the first hour after CA. Intact mice received H-Ile-Glu-Trp-OH in the same doses and according to the same schedule. On day 8 after the cytostatic injection, determined were karyocyte count in the donor bone marrow and the content of hemopoietic progenitors of different polipotencies: committed CFU-S-8 and CFU-S-12. CFU-8 are committed stem cells which later undergo differentiation. CFU-12 are the polypotent cells, from which stem cells can be recruited (i.e. they maintain the pool of stem cells). This is a slowly proliferating cell population, mainly in G phase. That is why it is important to evaluate the effect of a preparation on the pools of both committed (CFU-8) and polypotent (CFU- 12) cells. To this end, bone marrow was extracted from donor's femoral bones and injected to lethally irradiated recipients. After the cell injections, every test group was divided into 2 subgroups: some animals were killed on day 8, the other on day 12. Spleens were taken out and the colonies were counted. The tests were carried out on 105 mice.

[2] = system: CFU-S; assay: Spleen colony formation from RAMBS-treated bone marrow in lethally irradiated mice; type: in vivo, (CBA×C57BL)F1 female mice
Text: (CBA×C57BL)F1 female mice (n=2500), 2-months old, weighing about 20 g, were used in the experiment.
As is known, there is a close relationship between T-cells and hemopoietic progenitors. It was shown that, along with colony-forming units of spleen (CFU-S), thymocytes participate in colony formation of spleens of irradiated mice by controlling proliferation of the hemopoietic progenitor cells. The fact was established in a test system, which allowed a selective removal of accessory T-cells from bone marrow with the help of rabbit antimouse brain antiserum (RAMBS) and their substitution with other factors. Aliquots (0.1 ml) of bone marrow suspension (2×10^7 cells), RAMBS, and medium 199 were mixed and incubated for 1 hour at 37° C. Then the cells were washed with centrifuging, resuspended and injected to lethally irradiated mice.
According to the aforesaid scheme, instead of thymocytes mice received the peptide, H-Ile-Glu-Trp-OH injections 30 minutes before the injections of RAMBS-treated bone marrow suspension.

[3] = system: T-cell; assay: T-cell count in spleen, spontaneous rosette formation with sheep erythrocytes (E-FRC); type: in vivo, (CBA×C57BL)F1 mice
Description: Females and male (CBA×C57BL)F1 mice, aged about 2.5 months weighing about 20 g, were irradiated with gamma-rays using a "Luch-1" apparatus. Immunological activity was assessed according to Jerne (Antibody Forming Cells count--AFC). T-cell count in spleen was determined by the method of spontaneous rosette formation with sheep erythrocytes (E-FRC). The peptide was injected intramuscularly.
Mice were irradiated in a dose of 2 Gy, the peptide was injected in the dose of 10 μg/kg according to the following scheme (to determine T-cell count by the method of spontaneous rosette formation): 1 time--an hour after the irradiation; 2 times--an hour, and a day after irradiation; 3 times--an hour, a day, and two days after the irradiation; 4 times--an hour, a day, two days and three days after the irradiation. The intact mice recieved the peptide 3 or 4 times. The control group (2 Gy) recieved injections of physiological solution according to the same schedule. On completion of the treatment course, 10 mice from each group were immunized with sheep erythrocytes (SE) and 4-5 days later AFC counts were determined in their spleens. The rest of the mice were used to find T-cell count by the method of spontaneous rosette formation. The state of the organs of immune system (spleen and thymus) in mice with radiation immunodeficiency against the background of H-Ile-Glu-Trp-OH treatment was also listed by nucleated cell counts in thymus and spleen per mg of organ weight. AFC/mg Spleen weight is presented as an average of two experiments.

[4] = system: Thymoma EL-4 cells; assay: Thymoma EL-4 cells incubated with peptide and oxyurea, transplanted to mice: tumor growth and survival; type: in vivo, C57B1 mice
Description: The Thymoma EL-4 cells were extracted from the abdomen cavity of C57B1 mice at the 7th day after transplantation. The suspension was washed by centrifugation in the medium RPMI. Then the cells were resuspended in the growth medium (RPMI+10% of embryo serum+0.1% penicillin/streptomycin) and were split in culture flasks 5 ml each ([…] per flask). 2 mg of the preparation were added (20 μl) to each probe. After 18 hours of incubation (37 degrees Celsius CO2), OU was added to the half of probes (1 mg per 5 ml). Incubation was done for 1 more hour in the same conditions and then cells were washed out by centrifugation in the medium RPMI. The precipitated cells were resuspended in calculation 1 ml per 0.2 ml of RPMI medium and then transplanted to the mice C57B1 under the back skin.
The taking of the measurements of the size of the tumor was started after the knot became visible. The tumor was measured every day until it was impossible to measure. The survival ability of the mice was examined during 60 days after transplantation. Mice that survived after this period were considered to be cured. Each experimental group consisted of 6 animals.

[5] = Local irritating effect, rabbits; type: in vivo
Text: The local irritating effect of H-Ile-Glu-Trp-OH was studied in 20 guinea pigs and 5 rabbits.

[6] = system: tumor cells EL-4; assay: Thymoma EL-4 cells incubated with peptide and heated, transplanted to mice: tumor size; type: in vivo, C57B1 mice; conditions: for Tumor size: EL-4, 13th day
Description: Incubation of the tumor cells with the tested drugs were performed the same way as described above in the experiments with OU. After 18-hour incubation, the cells were washed in the medium RPMI, and then resuspended in the concentration of 5 ml/1 ml in plastic test tubes of total volume of 2 ml each. Then the cells were heated for 1 hour at 43 degrees Celsius, and transplanted under the back skin of the mice C57B1. The growth of the tumor was examined the same way as described above.

[7] = Effect on arterial pressure, cats; type: in vivo
Text: The effects of H-Ile-Glu-Trp-OH on ECG and arterial pressure were studied in guinea pigs and cats.
The influence of H-Ile-Glu-Trp-OH on arterial pressure was studied in 10 cats.

[8] = 60 days after transplantation of treated EL-4 cells

H-Ile-Glu-Trp-OH
Day 8 COUNT CFU-S-8 [1]: 2805 ± 232 | Day 8 COUNT CFU-S-12 [1]: 2930 ± 152 | Day 8 COUNT Karyocytes [1]: 23.0 ± 0.9 × 10^6 | Average Colony Count ([2]; RAMBS-treated bone marrow + preparation, lethally irradiated mice): 6,3 ± 0,4 | increase of colony yields as compared to RAMBS-treated bone marrow ([2]; mouse, in vivo): 2-3 times | T-Cell Count, column 1 ([3]; 2 Gy, 1 Injection): 34.5 ± 1.7 10^3 /mg Spleen | T-Cell Count, column 1 ([3]; 2 Gy, 2 Injection): 35.6 ± 1.8 10^3 /mg Spleen | T-Cell Count, column 1 ([3]; 2 Gy, 3 Injection): 45.3 ± 3.4 10^3 /mg Spleen | T-Cell Count, column 2 ([3]; 2 Gy, 3 Injection): 23.2 ± 3.7 10^3 /mg Spleen | T-Cell Count, column 1 ([3]; 2 Gy, 4 Injection): 48.4 ± 2.5 10^3 /mg Spleen | T-Cell Count, column 2 ([3]; 2 Gy, 4 Injection): 13.0 ± 0.8 10^3 /mg Spleen | T-Cell Count, column 2 ([3]; intact mice, 3 Injections): 12.7 ± 1.5 10^3 /mg Spleen | T-Cell Count, column 2 ([3]; intact mice, 4 Injections): 18.7 ± 5.8 10^3 /mg Spleen | % of Survival [4, 8]: 16.6% | Number of Survived Mice From 6 [4, 8]: 1/6 | extension of lifetime in combination with cytostatics ([4]; mice with Thymoma EL-4): 15 days | increase in lifetime versus control ([4]; mice with Thymoma EL-4): 4 days | tumor growth ([4]; thymoma cells incubated with H-Ile-Glu-Trp-OH, then OU): depression of the tumor growth on the 12th day is most definite | local irritating effect [5]: no local irritating effect | Tumor size ([6]; + Heating (1 hour at 43 degrees Celsius)): No Tumor | Tumor size ([6]; no heating): 188.7 mm squared | tumor formation ([6]; in vitro treatment followed by heating, 21st day): no tumor formation was observed | ECG readings and arterial pressure [7]: No significant difference from control
